Data set [1] in a line: Estimated fluid and brain concentrations after dosing hamsters. Format: in vivo, hamster. The method, then:
The adult male hamsters used in these studies weighed around 125 g. […] CLAV has a volume of distribution approximating the extracellular fluid volume. The extracellular water content of lean body mass is approximately 22%.
(§1) To this end, animals were treated with N-acetyl-beta-aspartyl-glutamic acid (beta-NAAG), a competitive inhibitor of NAALADase (Serval et al., 1992) and tested in the seed finding model of anxiety. The study was similar to that outlined in Section I with one notable exception. […] Beta-NAAG (FW 304) was given in a dose of 3 ng in a volume of 1 μl saline ICV. The average adult hamster brain weights ca. 1.2 g of which 22% is extracellular fluid.

Data set [2] deals with hamsters and other test species. Put plainly: Animal tests: effective dose for neuroactivity. The format is in vivo. The conditions noted are these: for threshold effective dose (administered parenterally): parenteral. The method, then: Animal tests indicate a threshold effective dose of moxalactam (administered parenterally) to be about 50 μg/kg of body weight. Based on animal test data and on the known distribution of parenterally administered moxalactam between the brain and other body tissues, that the effective minimum neurogenic protease inhibiting, concentration of moxalactam in the brain is about 30 nM. […] For parenterally administered moxalactam the minimum effective dose in hamsters and other test species is about 50 micrograms per kg of body weight, more or less. The use of moxalactam in an oral dosage form, preferably modified or derivatized in the form of an active ester, is estimated to range from about 2.5 to about 50 mg per dose, much less than the dose of moxalactam necessary to provide therapeutically effective antibiotic concentration. The effective oral dose of clavulanate is expected to be about 0.1 to about 10 mgs per dose.

A further data set relates to golden hamsters. Put plainly: Seed finding model of anxiety. Format: in vivo, Syrian golden hamsters (Mesocricetus auratus).
From the text: Clavulanic acid (CLAV) is structurally similar to the beta-lactam antibiotics. A most robust and simple bioassay for screening beta-lactams for CNS activity is the golden hamster seed finding model of anxiety. Briefly, hamsters are deprived of food overnight. The following day they are exposed to the additional stress of being taken from their home cage and placed in a novel environment for a few minutes. This manipulation stimulates the release of the stress hormone cortisol (FIG. 37). During their absence from the home cage, sunflower seeds are hidden under the bedding in one of the corners. When returned to the home cage, hamsters routinely scramble along the walls for 1-2 min before settling down, locating and eating the seeds. However, animals treated with the benzodiazepine anxiolytic chlordiazepoxide find seeds in less than 10 sec.
Male, Syrian golden hamsters (Mesocricetus auratus) (120-130 g) obtained from Harlan Sprague-Dawley Laboratories (Indianapolis, Ind.) were housed individually in Plexiglas cages (24 cm×24 cm×20 cm), maintained on a reverse light:dark cycle (14L:10D; lights on at 19:00 hr) and provided food and water ad libitum. A range of concentrations of CLAV (saline vehicle, 0.1, 1.0, 10, 100 1,000 ng/kg) were tested in six groups of hamsters (4-8/group)(FIG. 25). All tests were conducted during the dark phase of the circadian cycle under dim red illumination. Prior to testing all animals were fasted for 20-24 hrs. Ninety min after intraperitoneal (IP) injection of drug, animals were taken from their home cage and placed into a holding cage for 2 min. During their absence, six sunflower seeds were buried under the bedding in one corner of their home cage. Animals were placed back into their home cage randomly facing any one of the empty corners and timed for their latency to find the seeds in a five min observation period. Latency times were analyzed with a one-way ANOVA followed by Scheffe's post hoc tests. Assumption of equal variances was tested (Hartley's F-max=2.1 p>0.05)
as §1, with “It was hypothesized that CLAV functioned as an anxiolytic in the seed finding assay by blocking NAALADase activity in the brain. If this notion were true then it would be predicted that drugs known to block NAALADase should also enhance seed finding. To” for “To”, “fluid. The estimated beta-NAAG concentration was 11 ng/ml or 36 nM.” for “fluid.”
Two groups of six animals each were fasted overnight as previously described and tested the following day. One group was treated with beta-NAAG and the other saline vehicle and one hr later timed for latency to find the hidden sunflower seeds. A Student t-test for unpaired data was used for statistical comparisons.

Data set [3] has as its system rats. Nature of the data set: Motor activity in an open field (plus-maze animals). The format is in vivo, rat. The method, then:
However, this depression of motor activity disappears following repeated administration of CDP over several days. […] To control for any non-specific effects of Mox and CDP on motor activity following their direct injection into the brain, animals were tested in the open field 30 min prior to testing in the plus (FIG. 18).
Immediately after each of the plus-maze tests reported above in Section II, animals were tested for general motor activity in an “open field.” Animals were placed into a large clean Plexiglas cage (48×32×40 cm) devoid of bedding. This open field was delineated into equal quadrants by tape on the underside of the cage. Animals were scored for motor activity by counting the number of quadrants traversed in 1 min.

Data set [4] concerns rats. Put plainly: Morris water maze, cue navigation. The format is in vivo, rat. As for the experimental part:
(§2) On the day following the last day (Day 4) of spatial navigation, animals were tested for cue navigation. In these tests, the platform was raised above water level. One hr before testing animals were treated with Mox or saline vehicle. The same animals that were treated with Mox during spatial navigation were treated with Mox for cue navigation. Animals were run through a series of two minute trials with 45 min between trials. At each trial, the platform was moved to a different quadrant. The cue navigation study was identical to the spatial navigation except the platform was visible and the testing was done over five consecutive trials done on a single day. Animals were scored for latency to find the platform, percent time spent in each quadrant, path distance and swim speed for all testing periods
as §2, with “CLAV” for “Mox”, “animals” for “animals that were”, “min” for “minute”

[5] abbreviates: 140 g hamster, IP injection of 14 μg.

With `O=C(O)[C@H]1/C(=C/CO)O[C@@H]2CC(=O)N21` [CLAV, Clavulanic acid], the “estimated concentration in extracellular water” value in data set [1] (CLAV 1.25 ng in 27.5 ml of water (10 ng/kg, 125 g hamster)) is 0.045 ng/mL. Moreover, the “estimated concentration in the brain” value in data set [1] (CLAV 10 ng/kg, CSF/plasma ratio 0.25) was “around 50 μM”. In data set [1] (CLAV 10 ng/kg, formula weight ca. 240), the “estimated concentration in extracellular water (molar)” value is “about 200 μM”. In addition, in data set [2] (i.p.), the effective i.p. dose result is given as “less than 1 microgram/kg” and the “i.p. doses with psychotropic effects (antianxiety, antiaggression, cognition enhancement)” value is “less than 1 μg/kg”. Besides, the “latency to find the sunflower seeds vs vehicle” value in the data set on golden hamsters (1 ng/kg IP, 90 min) is on record as “not significantly different”. The “dose with maximal efficacy in the seed finding test” value in the data set with golden hamsters (IP) is given as 10 ng/kg body weight. The “latency to find the sunflower seeds” value in the data set on golden hamsters (doses of 10 ng and above (up to 1,000 ng/kg) IP, 90 min) was “less than 8.0 sec”. Besides, in the data set on rats [3] (CLAV 1.0 μg/kg IP, immediately after plus-maze), the “open field activity (quadrants traversed in 1 min)” value is reported as “no significant differences”. Also, in the data set on rats [4] (CLAV), the “distance traveled to find the platform” value was “not significantly different”, the “latency to find the platform” value is “no main effect for treatments”, the “percentage of time spent in each quadrant” value is given as “no significant difference between treatments” and the swim rate result is “no significant main effect”.

As for `CO[C@@]1(NC(=O)C(C(=O)O)c2ccc(O)cc2)C(=O)N2C(C(=O)O)=C(CSc3nnnn3C)CO[C@@H]21` (stereo partly drawn) [Mox, 7-β-[2-carboxy-2-(4-hydroxyphenyl)acetamido]-7α-methoxy-3-[[(1-methyl-1H-tetrazol-5-yl)thio]methyl]-1-oxa-1-dethia-3-cephem-4-carboxylic acid], in data set [1] (setting [5]), the “estimated CSF concentration” value is 15 ng/mL and the estimated serum concentration was 0.1 ng/mL. In data set [1] (following 50 μg/kg, listed as moxalactam), the “estimated (effective minimum) concentration of moxalactam in the brain” value is “about 30 nM”. Also, the “threshold effective dose (administered parenterally)” value in data set [2] (listed as Moxalactam) was ≥ 50 μg/kg of body weight. Further, the “threshold effective dose (administered parenterally)” value in data set [2] (listed as moxalactam) is recorded as “about 50 μg/kg of body weight”. Also, in the data set with golden hamsters (dose not given), the “change in seed finding time” value is given as “reduction in seed finding time from minutes to seconds”. Further, the “general motor activity in the open field” value in the data set on rats [3] (1 mM direct injection into the brain, 30 min prior to plus-maze) is on record as “no significant effect”. In the data set with rats [4] (Mox), the path length result is reported as “much shorter path length”, the “percentage of time spent in each quadrant” value is “no significant difference between treatments” and the swim speed entry was “no significant difference”. In addition, the “latency to find the platform” value in the data set with rats [4] (Mox, trials 1, 3 and 4) is on record as “significantly shorter latencies”.
